pKi: −log10 of the molar value.
Key:
Jurkat = test: Growth inhibition of Jurkat cell; type: functional; settings: Homo sapiens
[1] = target: T1, Apoptosis regulator Bcl-2 (Homo sapiens, UniProt P10415); test: Growth inhibition of Jurkat cell overexpressing Bcl2; type: functional, cell-based
Bcl-2-like protein 1 [2] = target: T2, Bcl-2-like protein 1 (Homo sapiens, UniProt Q07817); test: Growth inhibition of Jurkat cell overexpressing BclXL; type: functional, cell-based
[3] = Ratio of GI50 for Jurkat cells overexpressing Bcl2 or BclXL to normal Jurkat cells; type: functional, Homo sapiens
NCI-H460 = test: Growth inhibition of NCI-H460 cell; type: functional; settings: Homo sapiens
Bcl-2-like protein 2 = target: T3, Bcl-2-like protein 2 (Homo sapiens, UniProt Q92843); test: Binding affinity to Bclw by FP assay
T3 sequence (Q92843 whole entry): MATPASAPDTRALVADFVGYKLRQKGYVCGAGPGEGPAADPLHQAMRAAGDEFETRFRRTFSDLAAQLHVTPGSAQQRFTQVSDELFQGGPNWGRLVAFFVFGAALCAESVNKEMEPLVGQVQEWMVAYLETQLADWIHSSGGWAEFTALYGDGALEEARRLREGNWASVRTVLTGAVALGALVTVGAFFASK

Bcl-2-like protein 1 [4] = target: T2, Bcl-2-like protein 1; test: Binding affinity to BclXL by FP assay
[5] = target: T1, Apoptosis regulator Bcl-2; test: Binding affinity to Bcl2 by FP assay

T2 sequence (Q07817 whole entry): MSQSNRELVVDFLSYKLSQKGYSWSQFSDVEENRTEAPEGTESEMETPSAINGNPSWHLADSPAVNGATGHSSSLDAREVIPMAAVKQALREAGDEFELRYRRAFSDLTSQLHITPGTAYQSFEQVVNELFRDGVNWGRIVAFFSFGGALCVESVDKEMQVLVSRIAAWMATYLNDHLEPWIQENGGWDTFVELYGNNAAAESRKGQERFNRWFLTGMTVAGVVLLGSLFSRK
T1 sequence (P10415 whole entry): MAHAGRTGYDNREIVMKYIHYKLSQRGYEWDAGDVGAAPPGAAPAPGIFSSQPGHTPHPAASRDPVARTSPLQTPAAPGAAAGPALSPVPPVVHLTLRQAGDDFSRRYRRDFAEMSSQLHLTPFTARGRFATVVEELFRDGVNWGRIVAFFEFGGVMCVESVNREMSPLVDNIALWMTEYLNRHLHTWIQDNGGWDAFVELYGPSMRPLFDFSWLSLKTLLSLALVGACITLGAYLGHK

Structure (SMILES) | GI50 (Jurkat) [µM] | GI50 [1] [µM] | GI50 (Bcl-2-like protein 1 [2]) [µM] | RatioGI50 [3] | GI50 (NCI-H460) [µM] | pKi (Bcl-2-like protein 2) | pKi (Bcl-2-like protein 1 [4]) | pKi [5]
Nc1nc2[nH]cnc2c(=S)[nH]1 [THIOGUANINE] | 13 | 147 | 183 | >11 | – | – | – | –
CCOC(=O)C1=C(N)Oc2ccc(C)cc2C1C(C#N)C(=O)OCC (configuration not stated) | 29 | 37 | 41 | <1.41 | 102 | 3.70 | 3.72 | 3.51
CCOC(=O)C1=C(N)Oc2ccc(CC)cc2C1C(C#N)C(=O)OCC (configuration not stated) | 13 | 12 | 13 | <1 | 79.1 | 3.92 | 3.87 | 3.68
CCOC(=O)C1=C(N)Oc2ccc(-c3ccc(C(C)(C)C)cc3)cc2C1C(C#N)C(=O)OCC (configuration not stated) | 0.8 | 0.99 | 0.99 | <1.24 | 0.16 | 4.69 | 4.66 | –
CC(=O)O[C@H]1C(=O)[C@@]2(C)[C@H]([C@H](OC(=O)c3ccccc3)[C@]3(O)C[C@H](OC(=O)[C@H](O)[C@@H](NC(=O)c4ccccc4)c4ccccc4)C(C)=C1C3(C)C)[C@]1(OC(C)=O)CO[C@@H]1C[C@@H]2O [PACLITAXEL] | < 0.01 | > 10 | > 10 | >100 | – | – | – | –
CCOC(=O)C1=C(N)Oc2ccc(-c3ccccc3)cc2C1C(C#N)C(=O)OCC (configuration not stated) | 3.9 | 4.2 | 4.1 | <1.07 | 15.9 | 4.39 | 4.28 | 3.95
COc1cccc2c1C(=O)c1c(O)c3c(c(O)c1C2=O)C[C@@](O)(C(=O)CO)C[C@@H]3O[C@H]1C[C@H](N)[C@H](O)[C@H](C)O1 [DOXORUBICIN] | 0.21 | 26 | 24 | >100 | – | – | – | –
CCCc1ccc2c(c1)C(C(C#N)C(=O)OCC)C(C(=O)OCC)=C(N)O2 (configuration not stated) | 5.2 | 5.7 | 6.3 | <1.21 | 24.9 | 4.25 | 4.15 | 3.89
CCOC(=O)C1=C(N)Oc2ccc(C3CCCC3)cc2C1C(C#N)C(=O)OCC (configuration not stated) | 3.5 | 3.8 | 3.9 | <1.1 | 11 | 4.51 | 4.44 | 3.89
CCOC(=O)C1=C(N)Oc2ccccc2C1C(C#N)C(=O)OCC (configuration not stated) | 66 | 94 | 99 | <1.5 | 157 | 3.16 | 3.24 | 3.27

— ChEMBL document CHEMBL1138218, “Structure-activity relationship studies of ethyl 2-amino-6-bromo-4-(1-cyano-2-ethoxy-2-oxoethyl)-4H-chromene-3-carboxylate (HA 14-1), an antagonist for antiapoptotic Bcl-2 proteins to overcome drug resistance in cancer” (J Med Chem, 2006)
